Results: US10806785B2, “Immunomodulator compounds and methods of use” (Incyte Corporation, priority 2016, dated 2020)

Target: PD-1/PD-L1 (Homo sapiens (Human), UniProt Q9NZQ7)
Assay: PD-1/PD-L1 binding assay (HTRF)
Protocol: The assays were conducted in a standard black 384-well polystyrene plate with a final volume of 20 μL. Inhibitors were first serially diluted in DMSO and then added to the plate wells before the addition of other reaction components. The final concentration of DMSO in the assay was 1%. The assays were carried out at 25° C. in the PBS buffer (pH 7.4) with 0.05% Tween-20 and 0.1% BSA. Recombinant human PD-L1 protein (19-238) with a His-tag at the C-terminus was purchased from AcroBiosystems (PD1-H5229). Recombinant human PD-1 protein (25-167) with Fc tag at the C-terminus was also purchased from AcroBiosystems (PD1-H5257). PD-L1 and PD-1 proteins were diluted in the assay buffer and 10 μL was added to the plate well. Plates were centrifuged and proteins were preincubated with inhibitors for 40 minutes. The incubation was followed by the addition of 10 μL of HTRF detection buffer supplemented with Europium cryptate-labeled anti-human IgG (PerkinElmer-AD0212) specific for Fc and anti-His antibody conjugated to SureLight®-Allophycocyanin (APC, PerkinElmer-AD0059H). After centrifugation, the plate was incubated at 25° C. for 60 min. before reading on a PHERAstar FS plate reader (665 nm/620 nm ratio). Final concentrations in the assay were […], 10 nM PD-L1, 1 nM europium anti-human IgG and 20 nM anti-His-Allophycocyanin. IC50 determination was performed by fitting the curve of percent control activity versus the log of the inhibitor concentration using the GraphPad Prism 5.0 software.

Chain of PD-1/PD-L1 (Q9NZQ7 19-238): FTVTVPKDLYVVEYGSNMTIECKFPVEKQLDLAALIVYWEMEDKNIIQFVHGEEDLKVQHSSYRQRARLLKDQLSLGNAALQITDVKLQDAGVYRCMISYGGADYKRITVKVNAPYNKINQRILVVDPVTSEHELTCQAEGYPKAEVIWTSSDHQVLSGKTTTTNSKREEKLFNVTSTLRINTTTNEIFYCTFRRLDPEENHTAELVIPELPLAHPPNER

IC50, ≤ 10 nM:
Cc1c(-c2nc3c(o2)CN(C(=O)CN2CC[C@](C)(C(=O)O)C2)C3)cccc1-c1cccc(NC(=O)c2nc3c(n2C)CCN(C)C3)c1Cl [Compound 163, (S)-1-(2-(2-(2′-chloro-3′-(1,5-dimethyl-4,5,6,7-tetrahydro-1H-imidazo[4,5-c]pyridine-2-carboxamido)-2-methyl-[1,1′-biphenyl]-3-yl)-4,6-dihydro-5H-pyrrolo[3,4-d]oxazol-5-yl)-2-oxoethyl)-3-methylpyrrolidine-3-carboxylic acid]
Cc1c(-c2nc3c(o2)CN(C(=O)CN[C@@H](C)CO)C3)cccc1-c1cccc(NC(=O)c2nc3c(n2C)CCN(C)C3)c1Cl [Compound 164, (S)—N-(2-chloro-3′-(5-((S)-(1-hydroxypropan-2-yl)glycyl)-5,6-dihydro-4H-pyrrolo[3,4-d]oxazol-2-yl)-2′-methyl-[1,1′-biphenyl]-3-yl)-1,5-dimethyl-4,5,6,7-tetrahydro-1H-imidazo[4,5-c]pyridine-2-carboxamide]
CN1CCc2c(nc(C(=O)Nc3cccc(-c4cccc(NC(=O)c5nc6c(n5C)CCN(CCc5ccc(C(=O)O)cc5)C6)c4Cl)c3Cl)n2C)C1 [Example 78, 4-(2-(2-((2,2′-dichloro-3′-(1,5-dimethyl-4,5,6,7-tetrahydro-1H-imidazo[4,5-c]pyridine-2-carboxamido)-[1,1′-biphenyl]-3-yl)carbamoyl)-1-methyl-1,4,6,7-tetrahydro-5H-imidazo[4,5-c]pyridin-5-yl)ethyl)benzoic acid]
Cc1c(NC(=O)c2nc3c(n2C)CCN(CC2CC2)C3)cccc1-c1cccc(NC(=O)c2nc3c(n2C)CCN(CC[C@H]2CC[C@H](C(=O)O)CC2)C3)c1Cl [Example 128, trans-4-(2-(2-((2-chloro-3′-(5-(cyclopropylmethyl)-1-methyl-4,5,6,7-tetrahydro-1H-imidazo[4,5-c]pyridine-2-carboxamido)-2′-methyl-[1,1′-biphenyl]-3-yl)carbamoyl)-1-methyl-1,4,6,7-tetrahydro-5H-imidazo[4,5-c]pyridin-5-yl)ethyl)cyclohexane-1-carboxylic acid]
Cc1c(-c2nc3c(s2)CN(C(=O)CN(C)C)C3)cccc1-c1cccc(NC(=O)c2nc3c(n2C)CCN(C)C3)c1Cl [Example 53, N-(2-chloro-3′-(5-(2-(dimethylamino)acetyl)-5,6-dihydro-4H-pyrrolo[3,4-d]thiazol-2-yl)-2′-methylbiphenyl-3-yl)-1,5-dimethyl-4,5,6,7-tetrahydro-1H-imidazo[4,5-c]pyridine-2-carboxamide]
CC(C)N1CCc2c(nc(C(=O)Nc3cccc(-c4cccc(NC(=O)c5nc6c(n5C)CCN(CC[C@H]5CC[C@H](C(=O)O)CC5)C6)c4Cl)c3C#N)n2C)C1 [Compound 152, trans-4-(2-(2-((2-chloro-2′-cyano-3′-(5-isopropyl-1-methyl-4,5,6,7-tetrahydro-1H-imidazo[4,5-c]pyridine-2-carboxamido)-[1,1′-biphenyl]-3-yl)carbamoyl)-1-methyl-1,4,6,7-tetrahydro-5H-imidazo[4,5-c]pyridin-5-yl)ethyl)cyclohexane-1-carboxylic acid]
CN1CCc2c(nc(C(=O)Nc3cccc(-c4cccc(NC(=O)c5nc6c(n5C)CCN(C5CCC(C(=O)O)CC5)C6)c4Cl)c3Cl)n2C)C1 (stereo not shown) [Example 79, 4-(2-((2,2′-dichloro-3′-(1,5-dimethyl-4,5,6,7-tetrahydro-1H-imidazo[4,5-c]pyridine-2-carboxamido)-[1,1′-biphenyl]-3-yl)carbamoyl)-1-methyl-1,4,6,7-tetrahydro-5H-imidazo[4,5-c]pyridin-5-yl)cyclohexane-1-carboxylic acid]
Cn1c(C(=O)Nc2cccc(-c3cccc(NC(=O)c4nc5c(n4C)CCN(C4CCOCC4)C5)c3Cl)c2Cl)nc2c1CCN(CC[C@H]1CC[C@H](C(=O)O)CC1)C2 [Example 92, trans-4-(2-(2-((2,2′-dichloro-3′-(1-methyl-5-(tetrahydro-2H-pyran-4-yl)-4,5,6,7-tetrahydro-1H-imidazo[4,5-c]pyridine-2-carboxamido)-[1,1′-biphenyl]-3-yl)carbamoyl)-1-methyl-1,4,6,7-tetrahydro-5H-imidazo[4,5-c]pyridin-5-yl)ethyl)cyclohexane-1-carboxylic acid]
Cn1c(C(=O)Nc2cccc(-c3cccc(NC(=O)c4nc5c(n4C)CCN(C[C@H]4CC[C@H](C(=O)O)CC4)C5)c3Cl)c2Cl)nc2c1CCN(CCO)C2 [Example 65, trans-4-((2-((2,2′-dichloro-3′-(5-(2-hydroxyethyl)-1-methyl-4,5,6,7-tetrahydro-1H-imidazo[4,5-c]pyridine-2-carboxamido)-[1,1′-biphenyl]-3-yl)carbamoyl)-1-methyl-1,4,6,7-tetrahydro-5H-imidazo[4,5-c]pyridin-5-yl)methyl)cyclohexane-1-carboxylic acid]
Cc1c(NC(=O)c2nc3c(n2C)CCN(CC(=O)O)C3)cccc1-c1cccc(NC(=O)c2nc3c(n2C)CCN(C)C3)c1Cl [Example 33, 2-(2-(2′-chloro-3′-(1,5-dimethyl-4,5,6,7-tetrahydro-1H-imidazo[4,5-c]pyridine-2-carboxamido)-2-methylbiphenyl-3-ylcarbamoyl)-1-methyl-6,7-dihydro-1H-imidazo[4,5-c]pyridin-5(4H)-yl)acetic Acid]
Cc1c(NC(=O)c2nc3c(n2C)CCN(CC[C@H]2CC[C@H](C(=O)O)CC2)C3)cccc1-c1cccc(NC(=O)c2nc3c(n2C)CCN(C2CCOCC2)C3)c1Cl [Example 109, trans-4-(2-(2-((2′-chloro-2-methyl-3′-(1-methyl-5-(tetrahydro-2H-pyran-4-yl)-4,5,6,7-tetrahydro-1H-imidazo[4,5-c]pyridine-2-carboxamido)-[1,1′-biphenyl]-3-yl)carbamoyl)-1-methyl-1,4,6,7-tetrahydro-5H-imidazo[4,5-c]pyridin-5-yl)ethyl)cyclohexane-1-carboxylic acid]
Cn1c(C(=O)Nc2cccc(-c3cccc(NC(=O)c4nc5c(n4C)CCN(C[C@H]4CC[C@@H](C(=O)O)CC4)C5)c3Cl)c2Cl)nc2c1CCNC2 [Example 68, cis-4-((2-((2,2′-dichloro-3′-(1-methyl-4,5,6,7-tetrahydro-1H-imidazo[4,5-c]pyridine-2-carboxamido)-[1,1′-biphenyl]-3-yl)carbamoyl)-1-methyl-1,4,6,7-tetrahydro-5H-imidazo[4,5-c]pyridin-5-yl)methyl)cyclohexane-1-carboxylic acid]
Cc1c(NC(=O)c2nc3c(n2C)CCN(C[C@@H](C)O)C3)cccc1-c1cccc(NC(=O)c2nc3c(n2C)CCN(C2CCC(C)(C(=O)O)CC2)C3)c1Cl (mixture of isomers) [Compound 141, (R)-4-(2-((2-chloro-3′-(5-(2-hydroxypropyl)-1-methyl-4,5,6,7-tetrahydro-1H-imidazo[4,5-c]pyridine-2-carboxamido)-2′-methyl-[1,1′-biphenyl]-3-yl)carbamoyl)-1-methyl-1,4,6,7-tetrahydro-5H-imidazo[4,5-c]pyridin-5-yl)-1-methylcyclohcxane-1-carboxylic acid]
